Test results taken from publication PMC2900060, “Antioxidant and hepatoprotective effects of the methanol extract of the leaves of Satureja macrostema” (Pharmacognosy Magazine, 2010).
Converted amounts (≈) assume the structure as drawn.

Columns and labels:
[1] = Iron-chelating activity (ferrozine); settings: Fe2+-ferrozine, Table 2
Method: After 5 min incubation, the reaction was initiated by 1.0 ml of 5.0 mM ferrozine. After 10 min of equilibrium, the absorbance at 562 nm was recorded. The controls contained all reaction reagents except extracts or positive control substance. Three experiments were performed and the average result was adopted. The iron-chelating activities were calculated from the absorbance of the control (Ac) and of the sample (As) using the following equation: Inhibition(%) = Ac −As × 100 Ac

[2] = Inhibition of nitric oxide radical (sodium nitroprusside, Griess reaction); settings: concentration 50 μg/ml
Method: Nitric oxide generated from sodium nitroprusside in aqueous solution at physiological pH interacts with oxygen to produce nitrite ions, which were measured by the Griess reaction.[1213] The reaction mixture (3 ml) containing sodium nitroprusside (10 Mm) in phosphate buffered saline (PES) and SM and the reference compound in different concentrations (5, 10, 25, 50 and 100 μg) were incubated at 25°C for 150 min. In each 30 min, 0.5 ml of the incubated sample was removed and 0.5 ml of the Griess reagent (1% sulfanilamide, 0.1% naphthyl ethylene diamine dihydrochloride in 2% H3PO4) was added. The absorbance of the chromophore formed was measured at 546 nm. All the tests were performed in triplicate and the results were averaged. BHT was used as the reference compound. All the tests were performed in triplicate and the results were averaged. The percentage decrease in absorbance was calculated.[10] Quercetine was used as the standard.

[3] = Inhibition of superoxide anion radical (NBT/NADH/PMS); settings: concentration 50 μg/ml
Method: Measurement of superoxide anion scavenging activity of SM was performed based on the method described by […][11] and slightly modified. About 1 ml of nitroblue tetrazolium (NBT) solution containing 156 μM NBT which is dissolved in 1.0 ml of phosphate buffer (100 mM, pH 7.4), 1 ml of NADH solution containing 468 μM of NADH which is dissolved in 1 ml of phosphate buffer (100 mM, pH 7.4) and 0.1 ml of various concentrations of SM and the reference compounds (5, 10, 25, 50 and 100 μg) were mixed and the reaction started by adding l00 μl of phenazine methosulphate (PMS) solution containing 60 μM of PMS l00 μl of phosphate buffer (100 mM, pH 7.4). The reaction mixture was incubated at 25°C for 5 min and the absorbance at 560 nm was measured against the control samples. All the tests were performed in triplicate and the results were averaged. The percentage decrease in absorbance was calculated.[10] Quercetine was used as the standard.

[4] = Inhibition of DPPH radical; settings: concentration 100 μg/ml (table head prints mg/ml for SM)
Method: The free radical scavenging activity of the extract was analyzed by the DPPH (1,1-- diphenyl-- 2--picryl hydrazyl) assay.[10] A total of 2 ml of the test extract, at concentrations ranging from 1 μg/ml to 100 μg/ml each, was mixed with 1 ml of 0.5 mM DPPH (in methanol). The absorbance at 517 nm was taken after 30 min of incubation in the dark at room temperature. The experiment was done in triplicate. The percentage antioxidant activity was calculated as follows: %Antioxidant Activity [AA] = l00 --[ { (Abssample -- Absblank) X 100 }/Abs ml of methanol plus 2.0 ml of the extract was used as the blank while 1.0 ml of the 0.3 mM DPPH solution plus 2.0 ml of methanol was used as the negative control. Ascorbic acid was used as the reference standard.

Compound | IC50 Ion-chelating [1] | Nitric oxide scavenging [2] | Superoxide anion scavenging [3] | DPPH scavenging [4] | DPPH scavenging ([4]; listed as ascorbic acid)
Cc1cc(C(C)(C)C)c(O)c(C(C)(C)C)c1 [BHT] | 46.6 mg/mL (≈ 211 mM) |  |  |  | 
O=c1c(O)c(-c2ccc(O)c(O)c2)oc2cc(O)cc(O)c12 [Quercetin] |  | 93.8 ± 0.98 % | 90.87 ± 0.43 % |  | 
O=C1O[C@H]([C@@H](O)CO)C(O)=C1O [Ascorbic acid] | 49.3 mg/mL (≈ 280 mM) |  |  | 97 ± 0.52 % | 97%
